# Reference: patent publication US20150017717A1, “CULTURE MEDIUM FOR EUKARYOTIC CELLS” (Friesland Brands B.V., priority 2012, published 2015)
# Key:
# [1] = system: IgG expressing CHO cell line (CHO-2: ATCC CRL 11397, producing IgG4); test: Specific IgG production of CHO cells in supplemented chemically defined medium (sandwich ELISA / AUC); assay type: cell-based, Chinese hamster; conditions: ratio of cumulative IgG production (mg/ml) and AUC at day 11
# Procedure: (§1) The cell culture assay was carried out in commercially available IS CHO-CD medium (Irvine Scientific, Cat. No. 91119). To this media, L-Glutamine (2 mM), pluronic acid, hypoxanthine (100 μM) and thymidine (15 μM) were added. Penicillin and streptomycin were added to prevent any bacterial growth during the growth assay. The media was supplemented with methyl-L-3-phenyl lactate or mucic acid, both purchased from Sigma Aldrich, Germany, in varying concentrations (1×10^−3 to 1×10^−1% (w/v), see Table 2). The supplemented medium was mixed with a vortex mixture, filtered using a 0.22 μm filter and subsequently used in a growth assay.
# (§2) An IgG expressing CHO cell line was used (CHO-2: ATCC CRL 11397, producing IgG4). The cell lines were grown in the adherent conditions for a few passages and once confluent, they were transferred to animal-free conditions in the supplemented media described in Example 2.
# (§3) To measure growth and production curves, Chinese hamster ovary (CHO) cells were grown in suspension culture in baffled flasks. 20×10^6 cells were transferred in 25 ml media to the baffled flasks. Chemically defined media with and without added alpha-hydroxy acid derivatives were tested. No fresh media was added during the growth assay. Cells were counted using the CEDEX HiRes cell counter (Innovatis, Germany). The cell counts were used to calculate the area under the growth curve and represented as dimensionless area under curve (AUC) values as described in detail in Ling, C. X, Huang, J. and Zhang, H. (2003), International joint conferences on artificial intelligence, pp. 329-341. The supernatant samples were taken every alternate days for the IgG production measurements. IgG production was measured using sandwich ELISA method. The specific IgG production was calculated by taking the ratio of cumulative IgG production (in mg/ml) and AUC measured at day 11 of the growth assay. The cells were visually inspected using a phase contrast microscope (Zeiss Axiovert 25, 400× magnification). […] Only single cells were observed and no aggregation of cells was seen. The cell shape was also positively affected. […] This was in contrast with the observation that a lot of cell aggregates were present in CHO cell cultures grown in chemically defined medium without alpha-hydroxy acid derivatives.
# [2] = system: IgG expressing CHO cell line (CHO-2: ATCC CRL 11397, producing IgG4); test: Cell growth of CHO cells in suspension culture (area under growth curve, CEDEX cell counts); assay type: cell-based, Chinese hamster; conditions: dimensionless AUC
# Procedure: as §1, §2, §3
# [3] = system: cell culture (antibody production); test: Linear regression of antibody production in cell culture assays against relative concentration of components in plant protein hydrolysates; assay type: cell-based; conditions: linear regression over plant protein hydrolysates, MS Excel SLOPE function
# Procedure: Commercial plant protein hydrolysates like SE50MAF-UF, WGE80M-UF, CNE80M-UF, PCE80B obtained from FrieslandCampina Domo, USA were analysed by Liquid chromatography/Mass Spectrometry (LC/MS, LC/MS2) using a Waters Acquity UPLC and a Thermo-Finnigan LTQ mass spectrometer, which consists of an electrospray ionization (ESI) source and linear ion-trap (LIT) mass analyzer. The sample extract was split into two aliquots, dried, then reconstituted in acidic or basic LC-compatible solvents. One aliquot was analyzed using acidic positive ion optimized conditions and the other using basic negative ion optimized conditions in two independent injections using separate dedicated columns. Extracts reconstituted in acidic conditions were gradient eluted using water and methanol both containing 0.1% formic acid, while the basic extracts, which also use water/methanol, contain 6.5 mM ammonium bicarbonate. The MS analysis alternated between MS and data-dependent MS2 scans using dynamic exclusion. Biochemicals were identified by comparison to metabolomic library entries of purified standards or recurrent unknown entities. The combination of chromato-graphic properties and mass spectra gives an indication of a match to the specific compound or an isobaric entity. Thus, an overview of the biochemical components and their relative concentration present in plant protein hydrolysates was generated. Furthermore, all the hydrolysates were tested in the cell culture assays for cell growth and antibody production. […] Using the SLOPE function of Microsoft Excel 2003, the correlation between antibody production and relative concentration of the components was calculated, the results of which are presented in Table 1 below. The higher the positive slope, the higher the importance of a biochemical component in the cell culture. p-values, also calculated using MS Excel's correlation regression function, represent the significance of the values, with the lower the p-value (all between 0 and 1), the more significant the measured value.
SMILES,Specific IgG production after 11 days ([1]; 1 × 10^−1 % w/v added),Cell growth (area under curve) after 14 days ([2]; 1 × 10^−1 % w/v added),Specific IgG production after 11 days ([1]; 1 × 10^−2 % w/v added),Specific IgG production after 11 days ([1]; 1 × 10^−3 % w/v added),Cell growth (area under curve) after 14 days ([2]; 1 × 10^−2 % w/v added),Cell growth (area under curve) after 14 days ([2]; 1 × 10^−3 % w/v added),SLOPE (correlation of antibody production and relative concentration of the component) [3]
"COC(=O)[C@@H](O)Cc1ccccc1 [Methyl-L-3-phenyl lactate, methyl-L-3-phenyl lactate]",77.80,46.70,–,–,–,–,–
"O=C(O)[C@@H](O)[C@H](O)[C@H](O)[C@@H](O)C(=O)O [Mucic acid, mucic acid]",84.61,48.29,90.27,90.85,49.64,49.88,2108.11
CC(C)CC(O)C(=O)O (stereo not drawn) [alpha-hydroxyisocaproic acid],–,–,–,–,–,–,1654.23
CC(C)C(O)C(=O)O (stereo not drawn) [alpha-hydroxyisovaleric acid],–,–,–,–,–,–,2830.96
